Key:
[1] = system: HIV-ΔNef mutant (NL4-3 that fails to express Nef); assay: Replication of Nef-defective HIV in U87MG cells (p24 ELISA); conditions: p24 ELISA day 5, FIG. 8, for Ma even at 10 μM
Protocol: HIV p24 release was determined by ELISA at day 5 following the addition of the DFP-analogs. […] U87MG cells were infected a viral density of 500 pg/ml. p24 as determined by ELISA.
To address whether Nef is required for the anti-retroviral effects of these compounds, HIV replication assays in U87MG cells infected with either wild-type or Nef-defective HIV were carried out.
Viral replication was monitored by measuring p24 protein levels in the culture supernatant 4 days after infection by standard ELISA-based techniques. Test compounds were added to the culture 30 min prior to infection with HIV, and DMSO was used as the carrier solvent at a final concentration of 0.1%.
Nef:Hck-YEEI complex [2] = molecular target: T1, Nef:Hck-YEEI complex (Homo sapiens, UniProt P08631); assay: biochemical
U87MG cells = conditions: human, 96 h, 30 μM
Protocol: (§1) Lead compounds from the yeast screen were evaluated for activity in a Nef-dependent HIV replication assay. For these experiments, U87MG astroglioma cells engineered to express the HIV-1 co-receptors CD4 and CXCR4 were employed. Replication of HIV-1 NL4-3 is dependent upon an intact viral nef gene in these cells, making this system suitable to evaluate leads from the Nef-directed screen. U87MG cells were infected with HIV-1 in the presence of the top five compounds identified in the yeast screen, and HIV replication was monitored as p24 release into the culture supernatant 4 days later, as known in the art. As known in the art, “p24” refers to a constituent protein of the capsid of HIV-1.
(§2) The data of Table 1 are presented as percent p24 release relative to control in the absence of compound. […] Data are expressed as percent viable cells relative to untreated control culture.

Nef:Hck-YEEI complex [3] = conditions: Z'-Lyte dose-response, FIG. 7A
HIV-1 strain NL4-3 = assay: microbe, parasite or virus in culture; format: cell-based; conditions: for activity at 5 µM: 96 h, read-out: HIV p24% Control @ day 4
Protocol: as §1, §2
It is understood that “strongest” and like terms in the context of inhibitors identified in a library screen refer to compounds that inhibit at the lowest concentrations. For these experiments, the U87MG astroglioma cell line was used as a model system. […] U87MG cells were infected with HIV-1 strain NL4-3 as well as an isogenic variant that fails to express Nef (ΔNef), over a wide range of viral titers and in the presence of each compound at 5 μM. Viral replication was assessed as HIV p24 antigen release into the culture supernatant 4 and/or 5 days later. Methods for the assay of p24 in culture supernatant are well known in the art and include, for example without limitation, immunochemical methods.

Hck alone = molecular target: T2, Hck alone (Homo sapiens, UniProt P08631); assay: In vitro kinase assay of Hck alone (Z'-LYTE, peptide substrate); format: biochemical; conditions: Z'-Lyte dose-response, FIG. 7
T2 construct: made in house; host or cells: Sf9 insect cells
T2 sequence (P08631 with tags, fused parts or gaps isoform P08631-3): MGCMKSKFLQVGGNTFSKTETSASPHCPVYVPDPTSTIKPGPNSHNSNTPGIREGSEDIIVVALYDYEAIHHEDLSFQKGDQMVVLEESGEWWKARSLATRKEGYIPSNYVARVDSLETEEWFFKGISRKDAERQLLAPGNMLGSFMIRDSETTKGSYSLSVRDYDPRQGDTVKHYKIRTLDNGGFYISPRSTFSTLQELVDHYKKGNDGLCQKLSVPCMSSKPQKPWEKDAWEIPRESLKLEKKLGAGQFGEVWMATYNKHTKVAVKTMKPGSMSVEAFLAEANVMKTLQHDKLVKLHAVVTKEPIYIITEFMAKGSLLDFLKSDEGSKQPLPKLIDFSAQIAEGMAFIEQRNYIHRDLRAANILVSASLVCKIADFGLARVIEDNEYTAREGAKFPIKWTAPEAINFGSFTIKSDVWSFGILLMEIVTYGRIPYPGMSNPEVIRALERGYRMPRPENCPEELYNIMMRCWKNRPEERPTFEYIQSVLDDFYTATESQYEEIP

Nef:Hck-YEEI complex [4] = molecular target: T1, Nef:Hck-YEEI complex; conditions: Z'-Lyte dose-response, FIG. 7
[5] = Human immunodeficiency virus 1, NL43, U-87 MG

T1 sequence (P08631 with tags, fused parts or gaps isoform P08631-3, other chains not shown): as the sequence (P08631 with tags, fused parts or gaps isoform P08631-3) above

Compound	Effect on replication of HIV-ΔNef mutant [1]	IC50 (Nef:Hck-YEEI complex [2]; IC50, Nef-induced Hck activation (Nef:Hck complex kinase activity), in vitro, peptide substrate, triplicate, FIG. 5B legend)	IC50 (Nef:Hck-YEEI complex [2]; IC50, kinase activity of Nef:Hck-YEEI complex, dose response study, FIG. 5B, text b88)	Cytotoxicity against U87MG cells (U87MG cells)	Cytotoxicity, Viable cell % control (U87MG cells)	Increase in potency in the presence of Nef (Nef:Hck complex vs Hck alone) (Nef:Hck-YEEI complex [3])	activity at 5 µM (HIV-1 strain NL4-3; [5])	IC50 (HIV-1 strain NL4-3; Human immunodeficiency virus 1, NL43, U-87 MG, 120 h, read-out: IC50, HIV-1 replication (viral p24 release), U87MG cells, HIV strain NL4-3, p24 ELISA 5 days later, FIG. 5C)	HIV replication, p24 release (HIV-1 strain NL4-3; U87MG cells, HIV-1 NL4-3, compound at 5 μM, 4 and/or 5 days, FIG. 6)	IC50, wild-type HIV replication (HIV-1 strain NL4-3; U87MG cells, wild-type NL4-3, p24 ELISA day 5, FIG. 8)	Inhibition of Hck alone (Hck alone)	Inhibition of Nef:Hck complex (Nef:Hck-YEEI complex [4])	Anti-retroviral activity (HIV-1 strain NL4-3; data not shown)
OCCCNc1ncnc2oc(-c3ccccc3)c(-c3ccccc3)c12 [IIIa, 3-(5,6-diphenylfuro[2,3-d]pyrimidin-4-ylamino)propan-1-ol]	no effect	4 µM	~3 µM	neither DFP-4AP nor any of the other diphenylfuropyrimidine analogs displayed significant cytotoxicity	95 % control	2 fold	20%	6 µM	undetectable levels	low μM range	–	–	–
Nc1ncnc2oc(-c3ccccc3)c(-c3ccccc3)c12 [IIIi]	–	–	–	–	94 % control	–	72%	–	–	–	virtually inactive	virtually inactive	very weak anti-retroviral activity

From patent US8541415B2 (University of Pittsburgh—of the Commonwealth System of …, priority 2008, dated 2013)
